# In ChEMBL document CHEMBL4308841, “Synthesis, in vitro antiproliferative activity, and kinase inhibitory effects of pyrazole-containing diarylureas and diarylamides” (Eur J Med Chem, 2018):
# Columns and labels:
# MDA-MB-231 [1] = experiment: Growth inhibition of human MDA-MB-231 cells incubated for 48 hrs by sulforhodamine B assay; format: functional, cell-based; settings: MDA-MB-231, 48 h
# SF-295 = experiment: Growth inhibition of human SF295 cells incubated for 48 hrs by sulforhodamine B assay; format: functional, cell-based; settings: SF-295, 48 h
# OVCAR-8 = experiment: Growth inhibition of human OVCAR8 cells assessed as cell growth at 0.01 uM incubated for 48 hrs by sulforhodamine B assay relative to control; format: functional; settings: OVCAR-8, 48 h, read-out: Activity
# A549 = experiment: Growth inhibition of human A549/ATCC cells incubated for 48 hrs by sulforhodamine B assay; format: functional, cell-based; settings: A549, 48 h
# DU-145 [2] = experiment: Growth inhibition of human DU145 cells assessed as cell growth at 1 uM incubated for 48 hrs by sulforhodamine B assay relative to control; format: functional; settings: DU-145, 48 h, read-out: Activity
# IGROV-1 = experiment: Growth inhibition of human IGROV1 cells assessed as cell growth at 0.1 uM incubated for 48 hrs by sulforhodamine B assay relative to control; format: functional; settings: IGROV-1, 48 h, read-out: Activity
# DU-145 [3] = experiment: Growth inhibition of human DU145 cells assessed as cell growth at 100 uM incubated for 48 hrs by sulforhodamine B assay relative to control; format: functional; settings: DU-145, 48 h, read-out: Activity
# HCT-116 [4] = experiment: Growth inhibition of human HCT116 cells incubated for 48 hrs by sulforhodamine B assay; format: functional, cell-based; settings: HCT-116, 48 h
# RXF 393 = experiment: Growth inhibition of human RXF393 cells assessed as cell growth at 1 uM incubated for 48 hrs by sulforhodamine B assay relative to control; format: functional; settings: RXF 393, 48 h, read-out: Activity
# SK-MEL-28 = experiment: Growth inhibition of human SK-MEL-28 cells incubated for 48 hrs by sulforhodamine B assay; format: functional, cell-based; settings: SK-MEL-28, 48 h
# T47D [5] = experiment: Growth inhibition of human T47D cells incubated for 48 hrs by sulforhodamine B assay; format: functional, cell-based
# NCI/ADR-RES = experiment: Growth inhibition of human NCI/ADR-RES cells assessed as cell growth at 0.1 uM incubated for 48 hrs by sulforhodamine B assay relative to control; format: functional; settings: read-out: Activity
# MDA-MB-435 = experiment: Growth inhibition of human MDA-MB-435 cells assessed as cell growth at 1 uM incubated for 48 hrs by sulforhodamine B assay relative to control; format: functional; settings: MDA-MB-435, 48 h, read-out: Activity
# KM12 = experiment: Growth inhibition of human KM12 cells assessed as cell growth at 100 uM incubated for 48 hrs by sulforhodamine B assay relative to control; format: functional; settings: KM12, 48 h, read-out: Activity
# K562 = experiment: Growth inhibition of human K562 cells assessed as cell growth at 0.01 uM incubated for 48 hrs by sulforhodamine B assay relative to control; format: functional; settings: K562, 48 h, read-out: Activity
# T47D [6] = experiment: Growth inhibition of human T47D cells assessed as cell growth at 1 uM incubated for 48 hrs by sulforhodamine B assay relative to control; format: functional; settings: read-out: Activity
# CAKI-1 = experiment: Growth inhibition of human Caki1 cells assessed as cell growth at 0.01 uM incubated for 48 hrs by sulforhodamine B assay relative to control; format: functional; settings: CAKI-1, 48 h, read-out: Activity
# NCI-H460 = experiment: Growth inhibition of human NCI-H460 cells assessed as cell growth at 0.1 uM incubated for 48 hrs by sulforhodamine B assay relative to control; format: functional; settings: NCI-H460, 48 h, read-out: Activity
# Malme-3M = experiment: Growth inhibition of human MALME-3M cells assessed as cell growth at 0.01 uM incubated for 48 hrs by sulforhodamine B assay relative to control; format: functional; settings: read-out: Activity
# T47D [7] = experiment: Growth inhibition of human T47D cells assessed as cell growth at 0.1 uM incubated for 48 hrs by sulforhodamine B assay relative to control; format: functional; settings: read-out: Activity
# HCT-116 [8] = experiment: Growth inhibition of human HCT116 cells assessed as cell growth at 0.1 uM incubated for 48 hrs by sulforhodamine B assay relative to control; format: functional; settings: HCT-116, 48 h, read-out: Activity
# SNB-75 = experiment: Growth inhibition of human SNB75 cells assessed as cell growth at 1 uM incubated for 48 hrs by sulforhodamine B assay relative to control; format: functional; settings: SNB-75, 48 h, read-out: Activity
# MDA-MB-231 [9] = experiment: Growth inhibition of human MDA-MB-231 cells assessed as cell growth at 100 uM incubated for 48 hrs by sulforhodamine B assay relative to control; format: functional; settings: MDA-MB-231, 48 h, read-out: Activity
# SK-MEL-2 = experiment: Growth inhibition of human SK-MEL-2 cells assessed as cell growth at 100 uM incubated for 48 hrs by sulforhodamine B assay relative to control; format: functional; settings: SK-MEL-2, 48 h, read-out: Activity
# ACHN = experiment: Growth inhibition of human ACHN cells assessed as cell growth at 0.1 uM incubated for 48 hrs by sulforhodamine B assay relative to control; format: functional; settings: read-out: Activity
# A498 = experiment: Growth inhibition of human A498 cells assessed as cell growth at 0.01 uM incubated for 48 hrs by sulforhodamine B assay relative to control; format: functional; settings: A498, 48 h, read-out: Activity
# UACC-62 [10] = experiment: Growth inhibition of human UACC62 cells assessed as cell growth at 1 uM incubated for 48 hrs by sulforhodamine B assay relative to control; format: functional; settings: UACC-62, 48 h, read-out: Activity
# UACC-62 [11] = experiment: Growth inhibition of human UACC62 cells assessed as cell growth at 100 uM incubated for 48 hrs by sulforhodamine B assay relative to control; format: functional; settings: UACC-62, 48 h, read-out: Activity
# MCF7 = experiment: Growth inhibition of human MCF7 cells assessed as cell growth at 0.1 uM incubated for 48 hrs by sulforhodamine B assay relative to control; format: functional; settings: MCF7, 48 h, read-out: Activity
# [12] = read-out: LC50 (the source's name)
# [13] = read-out: pLC50 (the source's name) (converted)
structure (smiles),measurement,setting,value
COc1cc(Cl)cc(-c2nn(-c3cccc(NC(=O)c4cccc(C(F)(F)F)c4)c3)cc2-c2ccncc2)c1,GI50,MDA-MB-231 [1]; read-out: GI50,1.38 µM
same,CC50,MDA-MB-231 [1]; [12],> 100 µM
same,TGI,MDA-MB-231 [1]; read-out: TGI,99.7 µM
same,GI50,MDA-MB-231 [1]; read-out: pGI50 (converted),1.38 µM
same,CC50,MDA-MB-231 [1]; [13],> 100 µM
same,TGI,MDA-MB-231 [1]; read-out: pTGI (converted),10 µM
same,CC50,SF-295; [12],> 100 µM
same,TGI,SF-295; read-out: TGI,> 100 µM
same,GI50,SF-295; read-out: pGI50 (converted),3.89 µM
same,CC50,SF-295; [13],> 100 µM
same,TGI,SF-295; read-out: pTGI (converted),> 100 µM
same,growth at 0.01 µM,OVCAR-8,103%
same,IC50,A549,3.62 µM
same,GI50,A549; read-out: GI50,3.52 µM
same,CC50,A549; [12],> 100 µM
same,TGI,A549; read-out: TGI,> 100 µM
same,GI50,A549; read-out: pGI50 (converted),3.63 µM
same,CC50,A549; [13],> 100 µM
same,TGI,A549; read-out: pTGI (converted),> 100 µM
same,growth at 1 µM,DU-145 [2],100%
same,growth at 0.1 µM,IGROV-1,100%
same,growth at 100 µM,DU-145 [3],50%
same,IC50,HCT-116 [4],3.17 µM
same,GI50,HCT-116 [4]; read-out: GI50,3.17 µM
same,CC50,HCT-116 [4]; [12],> 100 µM
same,TGI,HCT-116 [4]; read-out: TGI,> 100 µM
same,GI50,HCT-116 [4]; read-out: pGI50 (converted),3.16 µM
same,CC50,HCT-116 [4]; [13],> 100 µM
same,TGI,HCT-116 [4]; read-out: pTGI (converted),> 100 µM
same,growth at 1 µM,RXF 393,53%
same,GI50,SK-MEL-28; read-out: GI50,> 100 µM
same,CC50,SK-MEL-28; [12],> 100 µM
same,TGI,SK-MEL-28; read-out: TGI,> 100 µM
same,GI50,SK-MEL-28; read-out: pGI50 (converted),> 100 µM
same,CC50,SK-MEL-28; [13],> 100 µM
same,TGI,SK-MEL-28; read-out: pTGI (converted),> 100 µM
same,GI50,T47D [5]; read-out: GI50,4.59 µM
same,CC50,T47D [5]; [12],> 100 µM
same,TGI,T47D [5]; read-out: TGI,> 100 µM
same,GI50,T47D [5]; read-out: pGI50 (converted),4.68 µM
same,CC50,T47D [5]; [13],> 100 µM
same,TGI,T47D [5]; read-out: pTGI (converted),> 100 µM
same,growth at 0.1 µM,NCI/ADR-RES,104%
same,growth at 1 µM,MDA-MB-435,93%
same,growth at 100 µM,KM12,28%
same,growth at 0.01 µM,K562,108%
same,growth at 1 µM,T47D [6],92%
same,growth at 0.01 µM,CAKI-1,95%
same,growth at 0.1 µM,NCI-H460,99%
same,growth at 0.01 µM,Malme-3M,58%
same,growth at 0.1 µM,T47D [7],101%
same,growth at 0.1 µM,HCT-116 [8],94%
same,growth at 1 µM,SNB-75,70%
same,growth at 100 µM,MDA-MB-231 [9],-14%
same,growth at 100 µM,SK-MEL-2,47%
same,growth at 0.1 µM,ACHN,98%
same,growth at 0.01 µM,A498,58%
same,growth at 1 µM,UACC-62 [10],56%
same,growth at 100 µM,UACC-62 [11],40%
same,growth at 0.1 µM,MCF7,92%
